In patent publication US20250388592A1 (REMYND N.V., priority 2022, published 2025):

Test system: M17_3TAU(P301L) cells
Test: TAU-induced cytotoxicity (LDH) in the neuroblastoma tauopathy model
Assay type: cell-based
Conditions: Homo sapiens, 168 h, inhibition of TAU-induced toxicity, 7 days retinoic acid differentiation, LDH readout
From the text: A TAU expression plasmid was constructed by sub-cloning the cDNA encoding for human TAU-P301L protein, wherein proline at position 301 is substituted by a leucine residue, into mammalian expression vector pcDNA3.1 resulting in the plasmid pcDNA3.1-TAUP301L. Plasmids pcDNA3.1 and pcDNA3.1-TAU P301L were transfected into human neuroblastoma cells (BE-M17; ATCC No. CRL-2267™) using lipofectamine reagent and subsequently, independent clonal cell lines with the plasmids stably integrated into the genome were selected by antibiotic resistance selection (Geneticin (G418)), resulting in cell lines M17.pcDNA3 and M17_3TAUP301L. Expression of the TAUP301 L gene in the M17_3TAUP301 L cells was confirmed by Western blot analysis.
Differentiation of the cells with RA leads to phosphorylation and subsequent aggregation of TAU, inducing a tauopathy in these cells. Cytotoxicity of cells was measured by quantification of lactate dehydrogenase (LDH) levels. In dead cells LDH is leaked out of the cells into the medium due to a loss of plasma-membrane integrity.
Briefly, 3 days preceding the experiment pre-cultures of M17.pcDNA3 and M17_3TAU(P301L) cells were prepared, starting from a stock culture, at a density of 50.000-100.000 cells/cm2 in detection medium (Optimem Reduced Serum without phenol red (Gibco, Cat. 31985-047) supplemented with 1% fetal calf serum (FCS), 1 mM sodium pyruvate, 1×non-essential amino acids (NEAA), 500 μg/ml G418 and 0.5×antibiotic/antimycotic (ABAM)). At the day of the experiment these precultures were diluted to ˜[…] in detection medium without FCS and 60 μL of this suspension is dispensed per well into a 96-well microtiter plate. After 3 hours of incubation at 37° C./5% C02 an equal volume of detection medium containing 2.5 μM RA was added and subsequently incubated for 7 days at 37° C./5% CO2. After 7 days, LDH activity was determined using the Promega Cytotox 96 Non-Radioactive cytotoxicity assay (Cat. G1780), according the manufacturer's instructions. Cytotoxicity is measured as the ratio of LDH increase in the supernatant divided by the LDH increase in the total cell suspension (sum of the LDH measured in cells and supernatant). Toxicity was determined after 7 days of differentiation with retinoic acid in M17_3TAU(P301 L) cells compared to M17.pcDNA3 cells.
The M17_3TAU(P301L) cell line makes it possible to assess the ability of novel compounds to inhibit TAU-induced cytotoxicity. […] Compounds were tested for their ability to hamper TAU-induced toxicity at different concentrations, ranging from low non-effective concentrations to high potent concentrations. Afterwards, the dose-dependent inhibition curve was used to calculate their EC50 (Table 3B).

Compound COC(=O)c1ccc(CN2CC3(C2)CN(C(=O)Cc2ccc(Cl)cc2)C3)cc1 [Cpd B035, methyl 4-((6-(2-(4-chlorophenyl)acetyl)-2,6-diazaspiro[3.3]heptan-2-yl)methyl)benzoate] has an EC50 of 6.06 nM.

For COc1cc(OC)nc(CN2CC3(C2)CN(C(=O)Cc2ccc(Cl)cc2)C3)n1 [Cpd B036, 2-(4-chlorophenyl)-1-(6-((4,6-dimethoxypyrimidin-2-yl)methyl)-2,6-diazaspiro[3.3]heptan-2-yl)ethanone], the EC50 was 17.6 nM.

In the case of CC(c1cccc(C(F)(F)F)c1)N1CC2(CN(C(=O)Cc3ccc(Cl)cc3)C2)C1 (stereo not drawn) [Cpd B037, 2-(4-chlorophenyl)-1-(6-(1-(3-(trifluoromethyl)phenyl)ethyl)-2,6-diazaspiro[3.3]heptan-2-yl)ethanone], the EC50 is reported as 5.41 nM.

In the case of Cc1cccc(CN2CC3(C2)CN(C(=O)Cc2ccc(Cl)cc2)C3)n1 [Cpd B038, 2-(4-chlorophenyl)-1-(6-((6-methylpyridin-2-yl)methyl)-2,6-diazaspiro[3.3]heptan-2-yl)ethanone], the EC50 is reported as 13.9 nM.

Work on O=C(Cc1ccc(Cl)cc1)N1CC2(CN(Cc3ncc(Cl)cn3)C2)C1 [Cpd B039, 2-(4-chlorophenyl)-1-(6-((5-chloropyrimidin-2-yl)methyl)-2,6-diazaspiro[3.3]heptan-2-yl)ethanone] yielded an EC50 of 56.3 nM.

O=C(Cc1ccc(Cl)cc1)N1CC2(CN(Cc3ccc(C(F)(F)F)o3)C2)C1 [Cpd B040, 2-(4-Chloro-phenyl)-1-[6-(5-trifluoromethyl-furan-2-ylmethyl)-2,6-diaza-spiro[3.3]hept-2-yl]-ethanone] was tested, and the EC50 was 40.4 nM.

Cc1cc(CN2CC3(C2)CN(C(=O)Cc2ccc(Cl)cc2)C3)no1 [Cpd B041, 2-(4-chlorophenyl)-1-(6-((5-methylisoxazol-3-yl)methyl)-2,6-diazaspiro[3.3]heptan-2-yl)ethanone] was tested, and the EC50 was 141 nM.

In the case of CCCN1CC2(C1)CN(C(=O)Cc1ccc(Cl)cc1)C2 [Cpd B042, 2-(4-chlorophenyl)-1-(6-propyl-2,6-diazaspiro[3.3]heptan-2-yl)ethanone], the EC50 is reported as 32.8 nM.

O=C(Cc1ccc(Cl)cc1)N1CC2(CN(Cc3cscn3)C2)C1 [Cpd B043, 2-(4-chlorophenyl)-1-(6-(thiazol-4-ylmethyl)-2,6-diazaspiro[3.3]heptan-2-yl)ethanone] gave an EC50 of 79.5 nM.

For O=C(Cc1ccc(Cl)cc1)N1CC2(CN(CCc3cccc(C(F)(F)F)c3)C2)C1 [Cpd B044, 2-(4-chlorophenyl)-1-(6-(3-(trifluoromethyl)phenethyl)-2,6-diazaspiro[3.3]heptan-2-yl)ethanone], the EC50 was 16.1 nM.

O=C(Cc1ccc(Cl)cc1)N1CC2(CN(CCc3cccc(F)c3)C2)C1 [Cpd B045, 2-(4-chlorophenyl)-1-(6-(3-fluorophenethyl)-2,6-diazaspiro[3.3]heptan-2-yl)ethanone] showed an EC50 of 11.6 nM.

In the case of COc1ccc(CCN2CC3(C2)CN(C(=O)Cc2ccc(Cl)cc2)C3)cc1 [Cpd B046, 2-(4-chlorophenyl)-1-(6-(4-methoxyphenethyl)-2,6-diazaspiro[3.3]heptan-2-yl)ethanone], the EC50 is reported as 4.11 nM.

In the case of Cc1ccc(CCN2CC3(C2)CN(C(=O)Cc2ccc(Cl)cc2)C3)cc1 [Cpd B047, 2-(4-chlorophenyl)-1-(6-(4-methylphenethyl)-2,6-diazaspiro[3.3]heptan-2-yl)ethanone], the EC50 is reported as 13.6 nM.

With O=C(Cc1ccc(Cl)cc1)N1CC2(CN(CCc3ccc(F)cc3)C2)C1 [Cpd B048, 2-(4-chlorophenyl)-1-(6-(4-fluorophenethyl)-2,6-diazaspiro[3.3]heptan-2-yl)ethanone] the EC50 was 8.85 nM.

Work on Cc1cccc(CCN2CC3(C2)CN(C(=O)Cc2ccc(Cl)cc2)C3)c1 [Cpd B049, 2-(4-chlorophenyl)-1-(6-(3-methylphenethyl)-2,6-diazaspiro[3.3]heptan-2-yl)ethanone] yielded an EC50 of 12.4 nM.

In the case of CC(C)(C(=O)c1ccccc1)N1CC2(CN(C(=O)Cc3ccc(Cl)cc3)C2)C1 [Cpd B050, 2-(6-(2-(4-chlorophenyl)acetyl)-2,6-diazaspiro[3.3]heptan-2-yl)-2-methyl-1-phenylpropan-1-one], the EC50 is reported as 72.8 nM.

For Cc1cccc(CCN2CC3(C2)CN(C(=O)Cc2ccc(Cl)cc2)C3)n1 [Cpd B051, 2-(4-chlorophenyl)-1-(6-(2-(6-methylpyridin-2-yl)ethyl)-2,6-diazaspiro[3.3]heptan-2-yl)ethanone], the EC50 was 30.7 nM.

O=C(Cc1ccc(Cl)cc1)N1CC2(CN(CCc3ccccc3)C2)C1 [Cpd B052, 2-(4-chlorophenyl)-1-(6-phenethyl-2,6-diazaspiro[3.3]heptan-2-yl)ethanone] gave an EC50 of 15.9 nM.

CC(C)CCN1CC2(C1)CN(C(=O)Cc1ccc(Cl)cc1)C2 [Cpd B053, 2-(4-chlorophenyl)-1-(6-isopentyl-2,6-diazaspiro[3.3]heptan-2-yl)ethanone] showed an EC50 of 5.07 nM.

Compound CC(Cc1ccccc1)N1CC2(CN(C(=O)Cc3ccc(Cl)cc3)C2)C1 (stereo not drawn) [Cpd B054, 2-(4-chlorophenyl)-1-(6-(1-phenylpropan-2-yl)-2,6-diazaspiro[3.3]heptan-2-yl)ethanone] has an EC50 of 19.2 nM.

O=C(Cc1ccc(Cl)cc1)N1CC2(CN(Cc3ccc(F)c(F)c3)C2)C1 [Cpd B055, 2-(4-chlorophenyl)-1-(6-(3,4-difluorobenzyl)-2,6-diazaspiro[3.3]heptan-2-yl)ethanone] showed an EC50 of 5.13 nM.

O=C(Cc1ccc(Cl)cc1)N1CC2(CN(CC3CCCCC3)C2)C1 [Cpd B056, 2-(4-chlorophenyl)-1-(6-(cyclohexylmethyl)-2,6-diazaspiro[3.3]heptan-2-yl)ethanone] gave an EC50 of 1.44 nM.

O=C(Cc1ccc(Cl)cc1)N1CC2(CN(CCC3CCCCC3)C2)C1 [Cpd B057, 2-(4-chlorophenyl)-1-(6-(2-cyclohexylethyl)-2,6-diazaspiro[3.3]heptan-2-yl)ethanone] gave an EC50 of 1.58 nM.

With COc1ccccc1CCCN1CC2(C1)CN(C(=O)Cc1ccc(Cl)cc1)C2 [Cpd B058, 2-(4-chlorophenyl)-1-(6-(3-(2-methoxyphenyl)propyl)-2,6-diazaspiro[3.3]heptan-2-yl)ethanone] the EC50 was 1.72 nM.

Compound COc1ccc(CCCN2CC3(C2)CN(C(=O)Cc2ccc(Cl)cc2)C3)cc1 [Cpd B059, 2-(4-chlorophenyl)-1-(6-(3-(4-methoxyphenyl)propyl)-2,6-diazaspiro[3.3]heptan-2-yl)ethanone] has an EC50 of 1.23 nM.

In the case of COc1ccc(CCCN2CC3(C2)CN(C(=O)Cc2ccc(F)cc2)C3)cc1 [Cpd B060, 2-(4-Fluoro-phenyl)-1-{6-[3-(4-methoxy-phenyl)-propyl]-2,6-diaza-spiro[3.3]hept-2-yl}-ethanone], the EC50 is reported as 0.81 nM.

For O=C(Cc1ccc(Cl)cc1)N1CC2(CN(CCc3ccccc3Cl)C2)C1 [Cpd B062, 1-(6-(2-chlorophenethyl)-2,6-diazaspiro[3.3]heptan-2-yl)-2-(4-chlorophenyl)ethanone], the EC50 was 1.08 nM.

Work on O=C(Cc1ccc(F)cc1)N1CC2(CN(CCc3ccccc3Cl)C2)C1 [Cpd B063, 1-{6-[2-(2-Chloro-phenyl)-ethyl]-2,6-diaza-spiro[3.3]hept-2-yl}-2-(4-fluoro-phenyl)-ethanone] yielded an EC50 of 3.12 nM.

COc1cc(OC)nc(CN2CC3(C2)CN(C(=O)Cc2ccc(F)cc2)C3)n1 [Cpd B064, 1-[6-(4,6-Dimethoxy-pyrimidin-2-ylmethyl)-2,6-diaza-spiro[3.3]hept-2-yl]-2-(4-fluoro-phenyl)-ethanone] was tested, and the EC50 was 32.8 nM.

For CC(c1ccccc1)N1CC2(CN(C(=O)Cc3ccc(Cl)cc3)C2)C1 (stereo not drawn) [Cpd B065, 2-(4-chlorophenyl)-1-(6-(1-phenylethyl)-2,6-diazaspiro[3.3]heptan-2-yl)ethanone], the EC50 was 3.23 nM.

O=C(Cc1ccc(F)cc1)NC1CC2(CC(NCc3ccccc3)C2)C1 (stereo not drawn) [Cpd B066, N-(6-(benzylamino)spiro[3.3]heptan-2-yl)-2-(4-fluorophenyl)acetamide] was tested, and the EC50 was 130 nM.

CN(Cc1ccccc1)C1CC2(CC(NC(=O)Cc3ccc(F)cc3)C2)C1 (stereo not drawn) [Cpd B067, N-(6-(benzyl(methyl)amino)spiro[3.3]heptan-2-yl)-2-(4-fluorophenyl)acetamide] gave an EC50 of 3.54 nM.

In the case of CN(Cc1ccccc1)C1CC2(CC(NC(=O)Cc3ccc(Cl)cc3)C2)C1 (stereo not drawn) [Cpd B068, N-(6-(benzyl(methyl)amino)spiro[3.3]heptan-2-yl)-2-(4-chlorophenyl)acetamide], the EC50 is reported as 13.4 nM.

Compound COc1cccc(CN2CC3(C2)CN(C(=O)COC2CCCCC2)C3)c1 [Cpd B070] has an EC50 of 54 nM.

With COc1cccc(CN2CC3(C2)CN(C(=O)CCC2CCCC2)C3)c1 [Cpd B071] the EC50 was 2.96 nM.

For COc1cccc(CN2CC3(C2)CN(C(=O)CC2CCCCC2)C3)c1 [Cpd B073], the EC50 was 5 nM.
